These compounds were tested against T1, IRAK-4 (Homo sapiens, UniProt Q9NWZ3) (assay: IRAK-4 Enzyme Inhibition Test (LANCE method)). Settings: compound concentration 1 μM; well without enzyme = 100% inhibition.
T1 construct: purchased Carna Biosciences, Inc
T1 sequence (Q9NWZ3 1-460): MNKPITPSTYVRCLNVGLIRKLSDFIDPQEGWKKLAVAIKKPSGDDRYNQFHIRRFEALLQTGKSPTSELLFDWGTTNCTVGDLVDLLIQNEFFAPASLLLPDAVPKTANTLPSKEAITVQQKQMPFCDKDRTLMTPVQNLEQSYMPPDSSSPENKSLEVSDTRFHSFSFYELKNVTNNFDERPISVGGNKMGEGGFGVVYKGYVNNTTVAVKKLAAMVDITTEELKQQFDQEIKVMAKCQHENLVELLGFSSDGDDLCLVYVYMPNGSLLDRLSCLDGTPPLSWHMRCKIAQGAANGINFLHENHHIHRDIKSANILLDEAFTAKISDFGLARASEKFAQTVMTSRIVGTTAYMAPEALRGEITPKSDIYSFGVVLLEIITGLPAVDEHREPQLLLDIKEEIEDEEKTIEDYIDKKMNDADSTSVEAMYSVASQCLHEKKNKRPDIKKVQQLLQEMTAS
Assay type: biochemical
Description: IRAK-4 enzyme inhibitory activities of test compounds were measured by LANCE method (PerkinElmer). First, a test compound diluted with assay buffer (50 mM HEPES (pH7.5), 10 mM MgCl2, 1 mM EGTA, 2 mM DTT, 0.01% Tween 20, 0.01% BSA) was added to 384-well plate at 2 μL each. Then, IRAK-4 (Carna Biosciences, Inc.) and a fluorescence-labeled peptide substrate (ULight-ACC peptide, PerkinElmer) solution diluted with assay buffer at 240 ng/mL and 37.5 nM, respectively were added at 2 μL each. Then, enzyme reaction was started by adding 2 μL each of ATP solution prepared with assay buffer at 1.5 mM. After the reaction at room temperature for 1 hr, Detection Buffer (PerkinElmer) prepared to be 20 mM EDTA, 1 nM europium-labeled anti-phospho ACC antibody (PerkinElmer) was added at 6 μL each. After standing at room temperature for 1 hr, fluorescence intensity (excitation wavelength 340 nm, fluorescence wavelength 665 nm, delay time 100 microseconds) was measured by a plate reader, Envision (PerkinElmer). The inhibitory activity of each compound was calculated as relative value where fluorescence intensity of a well without enzyme is considered as 100% inhibition.

IRAK4 enzyme inhibitory rate (%) at 1 μM	SMILES
100%	CN(C)CC1CN(c2nn(C)cc2NC(=O)c2coc(-c3ccnc(NCC(F)(F)F)c3)n2)C(=O)C1(C)C (stereo not drawn) [Example 62, N-(3-(4-((dimethylamino)methyl)-3,3-dimethyl-2-oxopyrrolidin-1-yl)-1-methyl-1H-pyrazol-4-yl)-2-(2-((2,2,2-trifluoroethyl)amino)pyridin-4-yl)-1,3-oxazole-4-carboxamide]

Same assay, conditions: compound concentration 1 μM; well without enzyme = 100% inhibition; read-out: IRAK4 enzyme inhibitory rate (%) at 1 μM

inhibition at 1 µM	SMILES
99%	Cn1cc(NC(=O)c2coc(-c3ccnc(NCC(F)F)c3)n2)c(N2CCN(CCO)C2=O)n1 [Example 60, 2-(2-((2,2-difluoroethyl)amino)pyridin-4-yl)-N-(3-(3-(2-hydroxyethyl)-2-oxoimidazolidin-1-yl)-1-methyl-1H-pyrazol-4-yl)-1,3-oxazole-4-carboxamide]
99%	C[C@H]1CCN(c2nn(C)cc2NC(=O)c2coc(-c3ccnc(NCC(F)(F)F)c3)n2)C1=O [Example 77, N-(1-methyl-3-((3S)-3-methyl-2-oxopyrrolidin-1-yl)-1H-pyrazol-4-yl)-2-(2-((2,2,2-trifluoroethyl)amino)pyridin-4-yl)-1,3-oxazole-4-carboxamide]
98%	CC(O)CN1CCN(c2nn(C)cc2NC(=O)c2coc(-c3ccnc(NCC(F)(F)F)c3)n2)C1=O (stereo not drawn) [Example 164, N-(3-(3-(2-hydroxypropyl)-2-oxoimidazolidin-1-yl)-1-methyl-1H-pyrazol-4-yl)-2-(2-((2,2,2-trifluoroethyl)amino)pyridin-4-yl)-1,3-oxazole-4-carboxamide]
100%	Cn1cc(NC(=O)c2coc(-c3ccnc(NCC4CC4)c3)n2)c(N2CCN(CCO)C2=O)n1 [Example 59, 2-(2-((cyclopropylmethyl)amino)pyridin-4-yl)-N-(3-(3-(2-hydroxyethyl)-2-oxoimidazolidin-1-yl)-1-methyl-1H-pyrazol-4-yl)-1,3-oxazole-4-carboxamide]
98%	Cn1cc(NC(=O)c2coc(-c3ccnc(NCC(F)(F)F)c3)n2)c(N2C[C@@H](O)CC2=O)n1 [Example 1, N-(3-((4S)-4-hydroxy-2-oxopyrrolidin-1-yl)-1-methyl-1H-pyrazol-4-yl)-2-(2-((2,2,2-trifluoroethyl)amino)pyridin-4-yl)-1,3-oxazole-4-carboxamide]
100%	CN(C)CC1CC(=O)N(c2nn(C)cc2NC(=O)c2coc(-c3ccnc(NCC(F)(F)F)c3)n2)C1 (stereo not drawn) [Example 3, N-(3-(4-((dimethylamino)methyl)-2-oxopyrrolidin-1-yl)-1-methyl-1H-pyrazol-4-yl)-2-(2-((2,2,2-trifluoroethyl)amino)pyridin-4-yl)-1,3-oxazole-4-carboxamide]
98%	CNCC1CN(c2nn(C)cc2NC(=O)c2coc(-c3ccnc(NCC(F)(F)F)c3)n2)C(=O)N1C (stereo not drawn) [Example 110, N-(1-methyl-3-(3-methyl-4-((methylamino)methyl)-2-oxoimidazolidin-1-yl)-1H-pyrazol-4-yl)-2-(2-((2,2,2-trifluoroethyl)amino)pyridin-4-yl)-1,3-oxazole-4-carboxamide]
98%	CC1CCN(c2nn(C)cc2NC(=O)c2coc(-c3ccnc(NCC(F)(F)F)c3)n2)C1=O (stereo not drawn) [Example 2, N-(1-methyl-3-(3-methyl-2-oxopyrrolidin-1-yl)-1H-pyrazol-4-yl)-2-(2-((2,2,2-trifluoroethyl)amino)pyridin-4-yl)-1,3-oxazole-4-carboxamide]
56%	Cn1cc(NC(=O)c2ccn(C(F)F)n2)c(N2CCC(C)(C)C2=O)n1 [Example 40, 1-(difluoromethyl)-N-(3-(3,3-dimethyl-2-oxopyrrolidin-1-yl)-1-methyl-1H-pyrazol-4-yl)-1H-pyrazole-3-carboxamide]
99%	Cn1cc(NC(=O)c2coc(-c3ccnc(NCC(F)(F)F)c3)n2)c(N2CC(CO)C(C)(C)C2=O)n1 (stereo not drawn) [Example 101, N-(3-(4-(hydroxymethyl)-3,3-dimethyl-2-oxopyrrolidin-1-yl)-1-methyl-1H-pyrazol-4-yl)-2-(2-((2,2,2-2-trifluoroethyl)amino)pyridin-4-yl)-1,3-oxazole-4-carboxamide]
100%	CN1CCN(c2nn(C)cc2NC(=O)c2cccc(N3CC4(CCNC4)NC3=O)n2)C1=O (stereo not drawn) [Example 215, N-(1-methyl-3-(3-methyl-2-oxoimidazolidin-1-yl)-1H-pyrazol-4-yl)-6-(2-oxo-1,3,7-triazaspiro[4.4]non-3-yl)pyridine-2-carboxamide]
100%	CN(C)CC1CN(c2nn(C)cc2NC(=O)c2coc(-c3ccnc(NCC(F)(F)F)c3)n2)C(=O)C1(C)C (stereo not drawn) [Example 61, N-(3-(4-((dimethylamino)methyl)-3,3-dimethyl-2-oxopyrrolidin-1-yl)-1-methyl-1H-pyrazol-4-yl)-2-(2-((2,2,2-trifluoroethyl)amino)pyridin-4-yl)-1,3-oxazole-4-carboxamide]
99%	Cn1cc(NC(=O)c2cccc(N3C[C@@H](CN)NC3=O)n2)c(N2CCC(C)(C)C2=O)n1 [Example 199, 6-((4R)-4-(aminomethyl)-2-oxoimidazolidin-1-yl)-N-(3-(3,3-dimethyl-2-oxopyrrolidin-1-yl)-1-methyl-1H-pyrazol-4-yl)pyridine-2-carboxamide]
77%	C[C@H]1C(O)C(C)(C)C(=O)N1c1nn(C)cc1NC(=O)c1coc(-c2ccnc(NCC(F)(F)F)c2)n1 (stereo partly drawn) [Example 17, N-(3-((5S)-4-hydroxy-3,3,5-trimethyl-2-oxopyrrolidin-1-yl)-1-methyl-1H-pyrazol-4-yl)-2-(2-((2,2,2-trifluoroethyl)amino)pyridin-4-yl)-1,3-oxazole-4-carboxamide]
98%	Cn1cc(NC(=O)c2coc(-c3ccnc(NCC(F)(F)F)c3)n2)c(N2CCC(C)(C)C2=O)n1 [Example 13, N-(3-(3,3-dimethyl-2-oxopyrrolidin-1-yl)-1-methyl-1H-pyrazol-4-yl)-2-(2-((2,2,2-trifluoroethyl)amino)pyridin-4-yl)-1,3-oxazole-4-carboxamide]
99%	Cn1cc(NC(=O)c2coc(-c3ccnc(NCC(F)(F)F)c3)n2)c(N2CCOC2=O)n1 [Example 55, N-(1-methyl-3-(2-oxo-1,3-oxazolidin-3-yl)-1H-pyrazol-4-yl)-2-(2-((2,2,2-trifluoroethyl)amino)pyridin-4-yl)-1,3-oxazole-4-carboxamide]
30%	Cc1cccc(C(=O)Nc2cn(C)nc2N2CCC(C)(C)C2=O)c1 [Example 46, N-(3-(3,3-dimethyl-2-oxopyrrolidin-1-yl)-1-methyl-1H-pyrazol-4-yl)-3-methylbenzamide]
98%	CN(C)[C@H]1CC(=O)N(c2nn(C)cc2NC(=O)c2coc(-c3ccnc(NCC(F)(F)F)c3)n2)C1 [Example 16, N-(3-((4S)-4-(dimethylamino)-2-oxopyrrolidin-1-yl)-1-methyl-1H-pyrazol-4-yl)-2-(2-((2,2,2-trifluoroethyl)amino)pyridin-4-yl)-1,3-oxazole-4-carboxamide]
100%	Cn1cc(NC(=O)c2cccc(N3CC4(CCNC4)NC3=O)n2)c(N2CCC(C)(C)C2=O)n1 (stereo not drawn) [Example 206, N-(3-(3,3-dimethyl-2-oxopyrrolidin-1-yl)-1-methyl-1H-pyrazol-4-yl)-6-(2-oxo-1,3,7-triazaspiro[4.4]non-3-yl)pyridine-2-carboxamide]
36%	Cc1cccc(C(=O)Nc2cn(C)nc2N2CCC(C)(C)C2=O)n1 [Example 36, N-(3-(3,3-dimethyl-2-oxopyrrolidin-1-yl)-1-methyl-1H-pyrazol-4-yl)-6-methylpyridine-2-carboxamide]

Source: patent publication US9321757B2, “Heterocyclic compound” (Takeda Pharmaceutical Company Limited, priority 2013, dated 2016)
